Measured values taken from patent publication US20100108083A1, “USE OF MEANS FOR TRAPPING CO2 IN A FILTER FOR PREVENTING INFLAMMATION, CANCER AND CARDIOVASCULAR DISEASES IN A SUBJECT EXPOSED TO TOBACCO SMOKE” (priority 2007, published 2010).

Assays:
[1] = tested on: BALB/c mice; details: CO2 of tobacco smoke selectively trapped by the filter, 38 minutes inhalation
Procedure: The experiment was conducted on BALB/c mice aged from 6 to 7 weeks under in vivo conditions. The number of mice used was 32 males, divided into four groups of eight. […] Each experiment lasted 38 minutes, or typically the equivalent of the consumption of 5 cigarettes by a smoker.
The mice were sacrificed after inhalation of air for 38 minutes in the four situations described above (see also the commentary of FIG. 3) and the lungs were removed immediately for analysis.
The lungs were analysed in order to measure the activity or the secretion of six proteins that are known markers of inflammation. […] These proteins are as follows: RANTES, IL-6, TNF-alpha, MIP-2, PP2A and NE-κB p65. […] Measurements of activity or of relative concentration of these proteins were performed using the following commercial kits: Mouse TNF-alpha/TNFSF1A DuoSet (ELISA assay for the concentration of TNF-alpha); Mouse CXCL2/MIP-2 DuoSet (ELISA assay for the concentration of MIP-2), Mouse CCL5/RANTES ELISpot Kit (ELISpot assay for the secretion of RANTES); Mouse IL-6 ELISpot Kit (ELISpot assay for the secretion of IL-6), all from R&D Systems (Minneapolis, Minn., USA).

[2] = tested on: BALB/c mice; assay: Plethysmography (Penh value) of mice breathing air enriched in CO2; type: in vivo
Procedure: 1/ BALB/c mice were placed in a closed chamber in which the proportion of CO2, at constant proportion of oxygen, was raised artificially to 2 (atmospheric air control), 5, 10 and 15% by injection of CO2 into the chamber every other minute. At each of these concentrations, non-invasive functional testing was carried out on the mice by plethysmography, according to the technique described by Hamelmann et al. (1997) Am J Respir Crit Care Med 156: 766-775). This technique involves assessing the respiratory distress of the mice by determining the Penh (enhanced pause) value.

[3] = tested on: β-catenin; assay: ELISA of β-catenin in the nucleus of pulmonary cells of mice after CO2 inhalation; type: in vivo; details: inhaled air with CO2 content above 10%, without decrease in oxygen, versus atmospheric air
Procedure: (§1) 2/After keeping the mice for 10 minutes in the chambers at the various concentrations of CO2 stated above, the mice were sacrificed (one hour after the start of the experiment) in order to determine the proteins β-catenin and NF-κBp65 in the nucleus of their pulmonary cells.
(§2) These two proteins are recognized markers of inflammation and of cancer. They were determined on the basis of optical density using specialized kits. β-Catenin was determined by ELISA (Catenin Enzyme Immunoassay Kit, Assay designs, Ann Arbor, Mich.) following the manufacturer's instructions. The protein NF-κB p65 was determined by another ELISA assay (TrasAM NF-κB p65 nuclear DNA based ELISA, Active Motif, Rixensart, Belgium) following the manufacturer's instructions. The values obtained, presented in the diagram in FIG. 2, are expressed relative to the total amount of proteins extracted from the cell nucleus.

[4] = tested on: NF-κB p65; assay: ELISA of NF-κB p65 in the nucleus of pulmonary cells of mice after CO2 inhalation; type: in vivo; details: inhaled air with CO2 content above 10%, without decrease in oxygen, versus atmospheric air
Procedure: as §1, §2

Q: For `[K+].[OH-]` [KOH solution, potassium hydroxide], which “Inflammation found in mice exposed to tobacco smoke” value [1] is on record?
A: Its value is “eliminated partially or even completely”.

Q: `O=C=O` [CO2, carbon dioxide] was tested. Which “Penh value, level relative to control” value ([2]; 15% CO2 in inhaled air at constant proportion of oxygen, versus atmospheric air control) did it give?
A: Its value is 6 times.

Q: What about the “Change of Penh value” ([2]; proportion of CO2 changes from 10 to 15%) of the same molecule?
A: Its value is “doubled”.

Q: What about the “Expression of β-catenin in lung tissues” value [3] of the same molecule?
A: The value was “very significant increase”.

Q: And the “Expression of NF-κBp65 in lung tissues” value [4]?
A: Its value is “very significant increase”.
